Results: PMC8805583, “Discovery of Herbacetin as a Novel SGK1 Inhibitor to Alleviate Myocardial Hypertrophy” (Advanced Science, 2021)

Experiments:
SGK1 = biological target: T1, SGK1 (Homo sapiens, UniProt O00141); experiment: KINOMEscan direct binding assay (Eurofins Discovery)
T1 sequence (O00141 1-431): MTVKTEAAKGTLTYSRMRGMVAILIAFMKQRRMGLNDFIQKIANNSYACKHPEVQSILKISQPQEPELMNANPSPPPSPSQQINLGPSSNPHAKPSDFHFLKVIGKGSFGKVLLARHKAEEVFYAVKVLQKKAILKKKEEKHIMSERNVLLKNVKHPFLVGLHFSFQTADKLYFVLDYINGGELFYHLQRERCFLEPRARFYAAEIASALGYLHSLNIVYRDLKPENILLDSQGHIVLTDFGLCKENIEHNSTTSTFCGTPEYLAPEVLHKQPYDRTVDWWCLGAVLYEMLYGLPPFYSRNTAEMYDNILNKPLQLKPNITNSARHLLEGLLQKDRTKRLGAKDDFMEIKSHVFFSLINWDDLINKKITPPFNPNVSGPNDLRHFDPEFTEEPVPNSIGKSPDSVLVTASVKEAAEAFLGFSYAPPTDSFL
Text: To identify active compounds with SGK1 inhibitory activity from Ext.R, a novel mass‐spectrometry based kinase inhibitory assay was developed. A polypeptide sequence ([…], m/z: 618.6) derived from glycogen Synthase Kinase‐3(GSK3), a known substrate of SGK1, was optimized and synthesized. We subsequently used liquid chromatography coupled with mass spectrometry (LC/MS) to detect and quantify its phosphorylation level ([…](p)FAE, m/z:658.7) (Figure 3A).^[ [26] ^] Basal level SGK1 was supplemented to each well, and the peak area of phosphorylation was measured in the presence or absence of testing compounds. […] After investigating the major chemical constituents in Ext.R (Table S3, Supporting Information), a set of compounds in Ext.R were subsequently screened for their impacts on SGK1 activity. […] The direct interaction between HBT and SGK1 was further verified by temperature‐ and dose‐dependent cellular thermal shift assays (Figure 3E,F). We further performed a direct binding assay of HBT to SGK1 by KINOMEscan assay (Eurofins Discovery).
The initial crystal structures of SGK1 (PDB entry: 3HDN, 3HDM, and 2R5T) were obtained from the Protein Data Bank (PDB). The prepared inhibitors were then docked by Glide with the extra precision (XP) scoring mode to estimate the binding affinity for each protein–ligand complex. The detailed process of docking has been described previously.^[ [46] ^] […]

[1] = Pharmacokinetics and tissue distribution after single oral administration; assay type: in vivo, Sprague-Dawley rats; settings: single oral dose 40 mg kg−1
Procedure: Finally, we evaluate the safety and pharmacokinetics of HBT to ensure its druggability. […] Single dose administration of HBT at 40 mg kg^−1 was uptaken rapidly with a maximal plasma concentration of ≈6.73 ng mL^−1 after 10 min (Figure S14A, Supporting Information).
Figure S13. Serum level of biochemical markers in mice of Ctrl and Ctrl + HBT groups. Data were analyzed using unpaired two-tailed t test and data were expressed as means ± SD, ns: no […]
Figure S14. Plasma concentration (A) and in vivo distribution (B) of HBT after single oral administration with dosage of 40mg/kg rat weight (n=5-6). The quantitation of HBT was performed by LC-MS/MS analysis. […]
or Fluo-4 AM working solution was added to each well and incubated at 37℃ for 20 minutes.
Then the cells were washed with PBS for 3 times and images were acquired using an ImageXpress Micro® Confocal High-Content Imaging System (Molecular Devices). The mean fluorescence intensity of cells positive for DCFH-DA or Fluo-4 AM staining was […]
4. Histology and Immunohistochemistry (IHC)
At the end of the experiment, mice were sacrificed and the hearts were harvested, fixed in 4% formalin, and paraffin embedded. Fibrosis was detected with Masson’s trichrome staining kit (Sigma) according to the manufacturer’s protocol. SGK1 expression of cardiomyocytes was determined by staining cells with antibodies specific for SGK1.
RT-PCR was performed to validate DEGs in the FoxO signaling pathway in response to Ext.R and also HBT’s effect on hypertrophic cardiomyocytes stimulated with phenylephrine. Total RNA isolation, reverse transcription and quantitative RT-PCR were performed using an Ultrapure RNA Kit, a HiFiScript First Strand cDNA Synthesis Kit, and an UltraSYBR Mixture Kit (CWBIO) respectively, according to the manufacturer's instructions. Relative target gene mRNA expression level was normalized to GAPDH. Primer sequences of genes […]
6. Pharmacokinetics studies
Twelve male Sprague-Dawley rats, weighing 250 ± 10 g, were purchased from Huafukang biological technology (Beijing, China). […]

## O=c1c(O)c(-c2ccc(O)cc2)oc2c(O)c(O)cc(O)c12 [HBT, herbacetin]
SGK1; KINOMEscan, read-out: binding constants (Kds) for SGK1
  Kd: 840 nM
SGK1; same KINOMEscan assay
  Kd fold lower than EMD638683: 14 fold
[1]; male, Sprague-Dawley, plasma, rat, read-out: time of maximal plasma concentration (converted)
  Tmax: 10 min
[1]; at time of maximal plasma concentration
  tissue distribution (heart, liver, kidney): readily detected
[1]; rat
  maximal plasma concentration: ≈ 6.73 ng mL^−1
